Data set [1] concerns VCaP cells. As to the kind of experiment: Cell growth, viable cells by trypan blue exclusion, VCaP. Type of data set: cell-based. Particulars: Homo sapiens, 72 h, read-out: IC50 cell growth VCaP.
The target in data set [2] is T1, ACK1 (Homo sapiens, UniProt Q07912). As to the kind of experiment: ELISA-based ACK1 kinase inhibition. Type of data set: biochemical. The note with it: for ACK1 inhibition in ELISA: 10 μM; for inhibition at 10 µM: read-out: % Inhibition @ 10 μM (ELISA).
The target in data set [3] is ACK1 Tyr284 phosphorylation in LAPC4 cells (Homo sapiens, UniProt Q07912). As to the kind of experiment: ACK1 Tyr284 autophosphorylation by immunoblotting in EGF-treated LAPC4 cells. The data set is classed as cell-based. The note with it: 5 μM, immunoblot (Figure 3a). (In general: In western blotting, separated proteins are transferred to a membrane and probed.)
Data set [4] concerns ACK1 autophosphorylation. The note with it: read-out: IC50 inhibition of ACK1 autophosphorylation in intact cells; cited from earlier work.
In data set [5] the target is ALK (Homo sapiens, UniProt Q9UM73). As to the kind of experiment: 33P HotSpot kinase profiling, ALK. Type of data set: biochemical. Particulars: ALK vs ACK1.
The nature of data set [6]: In vitro human plasma stability by HPLC. The data set is classed as in vitro ADME. Particulars: for stability in human plasma: up to 24 h, HPLC.
In data set [7] the test system is LNCaP cells. The experiment in a line: Cell growth, viable cells by trypan blue exclusion, LNCaP. Type of data set: cell-based. The note with it: Homo sapiens, 72 h, read-out: IC50 cell growth LNCaP.
For data set [8] the following is noted: standards; cited from earlier work.
The target of data set [9] is T1, ACK1. The experiment in a line: 33P HotSpot assay. Type of data set: biochemical. The note with it: IC50 (33P Hotspot assay).
Data set [10] relates to A549 lung cancer cells. Particulars: at 10 μM; cited from earlier work.

Counter-ions that a name gives are not always drawn.

T1 sequence (Q07912 whole entry): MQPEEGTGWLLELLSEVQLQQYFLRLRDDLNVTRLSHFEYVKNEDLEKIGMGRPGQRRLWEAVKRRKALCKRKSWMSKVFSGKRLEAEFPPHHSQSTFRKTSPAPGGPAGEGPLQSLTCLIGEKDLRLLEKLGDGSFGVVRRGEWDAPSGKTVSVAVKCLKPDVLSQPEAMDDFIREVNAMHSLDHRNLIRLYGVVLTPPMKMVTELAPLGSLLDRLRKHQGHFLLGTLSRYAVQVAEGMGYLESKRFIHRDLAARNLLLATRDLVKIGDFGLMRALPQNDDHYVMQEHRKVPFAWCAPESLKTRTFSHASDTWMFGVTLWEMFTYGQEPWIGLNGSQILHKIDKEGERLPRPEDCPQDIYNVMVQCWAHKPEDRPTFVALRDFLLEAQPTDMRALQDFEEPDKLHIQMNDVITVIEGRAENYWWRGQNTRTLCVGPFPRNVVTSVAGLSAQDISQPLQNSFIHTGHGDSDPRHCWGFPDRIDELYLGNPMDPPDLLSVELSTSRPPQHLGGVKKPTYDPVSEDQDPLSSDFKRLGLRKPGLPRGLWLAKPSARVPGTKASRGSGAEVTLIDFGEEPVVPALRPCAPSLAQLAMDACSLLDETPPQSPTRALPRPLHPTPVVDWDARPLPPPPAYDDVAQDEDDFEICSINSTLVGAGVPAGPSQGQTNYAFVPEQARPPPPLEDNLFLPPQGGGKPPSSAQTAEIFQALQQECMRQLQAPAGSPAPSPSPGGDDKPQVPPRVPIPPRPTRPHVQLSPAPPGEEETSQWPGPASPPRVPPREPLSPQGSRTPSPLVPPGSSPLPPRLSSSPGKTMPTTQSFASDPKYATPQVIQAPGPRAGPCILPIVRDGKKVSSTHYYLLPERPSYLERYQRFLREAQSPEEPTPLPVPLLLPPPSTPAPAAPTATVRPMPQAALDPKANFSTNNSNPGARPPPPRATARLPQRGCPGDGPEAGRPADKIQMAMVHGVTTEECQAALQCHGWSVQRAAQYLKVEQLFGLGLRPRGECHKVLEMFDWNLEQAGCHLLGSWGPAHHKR
ACK1 Tyr284 phosphorylation in LAPC4 cells, sequence (Q07912 whole entry): as above
ALK, sequence (Q9UM73 19-1620): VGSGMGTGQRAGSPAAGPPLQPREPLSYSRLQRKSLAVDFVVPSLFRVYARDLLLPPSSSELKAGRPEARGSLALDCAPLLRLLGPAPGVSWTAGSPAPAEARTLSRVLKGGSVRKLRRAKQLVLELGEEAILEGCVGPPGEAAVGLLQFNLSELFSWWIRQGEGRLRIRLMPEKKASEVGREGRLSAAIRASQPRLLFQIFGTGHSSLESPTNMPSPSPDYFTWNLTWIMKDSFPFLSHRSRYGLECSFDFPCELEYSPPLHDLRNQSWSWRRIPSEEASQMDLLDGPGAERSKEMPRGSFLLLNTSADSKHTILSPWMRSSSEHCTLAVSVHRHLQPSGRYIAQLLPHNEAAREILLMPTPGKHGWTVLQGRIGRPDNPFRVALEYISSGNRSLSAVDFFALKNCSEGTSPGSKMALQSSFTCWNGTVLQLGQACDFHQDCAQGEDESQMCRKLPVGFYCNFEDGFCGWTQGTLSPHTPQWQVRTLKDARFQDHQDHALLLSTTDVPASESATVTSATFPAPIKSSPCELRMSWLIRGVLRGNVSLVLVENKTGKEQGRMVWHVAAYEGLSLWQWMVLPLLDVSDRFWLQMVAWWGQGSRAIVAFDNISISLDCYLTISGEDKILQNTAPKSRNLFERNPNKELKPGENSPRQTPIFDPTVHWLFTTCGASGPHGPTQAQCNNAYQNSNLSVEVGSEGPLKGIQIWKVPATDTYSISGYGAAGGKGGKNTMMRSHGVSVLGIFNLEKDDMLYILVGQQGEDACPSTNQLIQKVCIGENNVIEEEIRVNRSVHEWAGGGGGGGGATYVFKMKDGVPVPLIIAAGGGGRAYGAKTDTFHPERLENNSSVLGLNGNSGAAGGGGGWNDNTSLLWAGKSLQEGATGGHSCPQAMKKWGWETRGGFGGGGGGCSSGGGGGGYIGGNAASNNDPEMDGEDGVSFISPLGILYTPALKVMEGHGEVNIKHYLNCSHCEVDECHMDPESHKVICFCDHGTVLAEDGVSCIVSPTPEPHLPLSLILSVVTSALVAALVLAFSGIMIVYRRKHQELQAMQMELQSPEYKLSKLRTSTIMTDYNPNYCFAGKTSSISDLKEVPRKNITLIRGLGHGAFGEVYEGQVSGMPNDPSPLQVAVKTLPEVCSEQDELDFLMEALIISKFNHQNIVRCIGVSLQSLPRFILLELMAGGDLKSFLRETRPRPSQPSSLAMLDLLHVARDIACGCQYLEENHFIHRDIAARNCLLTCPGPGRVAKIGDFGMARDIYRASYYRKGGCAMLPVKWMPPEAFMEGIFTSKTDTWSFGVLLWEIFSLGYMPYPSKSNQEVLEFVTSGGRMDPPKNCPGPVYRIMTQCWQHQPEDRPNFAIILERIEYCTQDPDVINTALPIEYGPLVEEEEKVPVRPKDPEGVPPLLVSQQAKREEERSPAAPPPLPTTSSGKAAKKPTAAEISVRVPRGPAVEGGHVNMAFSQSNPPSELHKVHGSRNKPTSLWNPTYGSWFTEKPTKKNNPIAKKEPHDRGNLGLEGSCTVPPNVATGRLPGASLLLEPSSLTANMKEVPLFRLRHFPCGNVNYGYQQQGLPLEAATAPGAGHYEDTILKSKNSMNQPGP

Take `c1ccc(-c2oc3ncnc(NC[C@@H]4CCCO4)c3c2-c2ccccc2)cc1` [1b]: the IC50 in [1] came out at 4000 nM.

As to `Cl.O=C(O)Cc1ccc(Nc2ncc(Cl)c(NCC3CCCO3)n2)cc1` (stereo not shown) [compound 23], the “ACK1 inhibition in ELISA” value in data set [2] was “moderate ACK1 inhibition”.

In the case of `Cl.O=C(O)CCC(=O)N1CCN(c2ccc(Nc3ncc(Br)c(NCC4CCCO4)n3)cc2)CC1` (stereo not shown) [compound 29], the “ACK1 inhibition in ELISA” value in data set [2] was “significant ACK1 inhibition”.

For the compound `COc1cc(N2CCC(N3CCN(C)CC3)CC2)ccc1Nc1ncc(Cl)c(Nc2ccccc2S(=O)(=O)C(C)C)n1` [compound 5, reference compound], the “ACK1 activation (Tyr284 autophosphorylation) after EGF” value (“ACK1 activation” below) in [3] is on record as “significant reduction in ACK1 activation”.

As to `COC(C)(C)CCn1nc(Nc2c(C)cccc2C)c2cnc(Nc3ccccc3)nc21` [2a], in data set [4], the IC50 is 20 nM.

Turning to “5-[(2-Chloro-6-fluorophenyl)carbamoyl]-N^2-[(4-methoxyphenyl)amino]-N^4-[(tetrahydrofuran-2-yl)methyl]pyrimidine-2,4-diamine [9q]”, the “% Inhibition @ 10 μM (ELISA)” value in data set [2] (compound 10 μM, average of three or more determinations) is reported as 68 ± 10%.

For `Cl.O=C(O)CCc1ccc(Nc2ncc(Br)c(NCC3CCCO3)n2)cc1` (stereo not shown) [compound 28], the “ACK1 inhibition in ELISA” value in data set [2] is “moderate ACK1 inhibition”.

For the compound `Oc1ccc(NNc2ncc(F)c(NCC3CCCO3)n2)cc1F` (stereo not shown) [9t, 5-Fluoro-N^2-[(4-hydroxy-3-fluorophenyl)amino]-N^4-[(tetrahydrofuran-2-yl)methyl]pyrimidine-2,4-diamine Hydrochloride], in [2], the inhibition at 10 µM was 41 ± 6.3%.

For the compound `Cl.O=C(O)CCc1ccc(Nc2ncc(Cl)c(NCC3CCCO3)n2)cc1` (stereo not shown) [compound 24], the “ACK1 inhibition in ELISA” value in [2] is reported as “moderate ACK1 inhibition”.

Consider `CN1CCN(c2ccc(Nc3ncc(Cl)c(NC[C@H]4CCCO4)n3)cc2)CC1` [(R)-9b, (R)-5-Chloro-N^2-[4-(4-methylpiperazin-1-yl)phenyl]-N^4-[(tetrahydrofuran-2-yl)methyl]pyrimidine-2,4-diamine], for which the “fold difference of ALK IC50 versus ACK1 IC50” value in data set [5] was 3 fold. Further, the “ACK1 activation” value in data set [3] is listed as “almost complete loss of ACK1 activation”. Also, the half-life at 250 µM in [6] (human, human plasma) was over 6 h. Moreover, the “stability in human plasma” value in [6] was “stable in human plasma”.

For `CN1CCN(c2ccc(Nc3ncc(Cl)c(NC[C@@H]4CCCO4)n3)cc2)CC1` [(S)-9b, (S)-5-Chloro-N^2-[4-(4-methylpiperazin-1-yl)phenyl]-N^4-[(tetrahydrofuran-2-yl)methyl]pyrimidine-2,4-diamine], the 50% inhibitory concentration (IC50) in data set [7] was 1800 nM. In addition, the “ACK1 activation” value in [3] was “almost complete loss of ACK1 activation”. Further, the “stability in human plasma” value in data set [6] is “stable in human plasma”.

Take `Cc1cnc(NNc2ccc(O)c(F)c2)nc1NCC1CCCO1` (stereo not shown) [9u, 5-Methyl-N^2-[(4-hydroxy-3-fluorophenyl)amino]-N^4-[(tetrahydrofuran-2-yl)methyl]pyrimidine-2,4-diamine Hydrochloride]: the inhibition at 10 µM in data set [2] worked out at 49 ± 2.8%.

For `CCN(CC)CCOC(=O)c1ccc(N)cc1` [procaine], the “reported stability in human plasma” value in [8] was “unstable”.

Consider `CN(C)CCNC(=O)CCc1ccc(Nc2ncc(Cl)c(NCC3CCCO3)n2)cc1.Cl` (stereo not shown) [compound 26], for which, in data set [2], the “ACK1 inhibition in ELISA” value was “moderate ACK1 inhibition”.

Consider `O=C(O)CCC(=O)N1CCN(c2ccc(Nc3ncc(C(=O)Nc4c(F)cccc4Cl)c(NCC4CCCO4)n3)cc2)CC1` (stereo not shown) [compound 22, 4-(4-{4-[[5-((2-Chloro-6-fluorophenyl)carbamoyl)-4-(((tetrahydrofuran-2-yl)methyl)amino)pyrimidin-2-yl]amino]phenyl}piperazin-1-yl)-4-oxobutanoic Acid], for which the inhibition at 10 µM in [2] was found to be 89 ± 5.6%. The same compound showed an IC50 in data set [9] of 28 nM.

Regarding `COc1cc(N2CCN(C)CC2)ccc1Nc1ncc2c(n1)N(C)c1ccccc1C(=O)N2` [compound 3], the “A549 lung cancer cell growth” value in data set [10] is reported as “inhibits”.

Broadly, the IC50 is the midpoint of a concentration-inhibition curve. One may read the inhibition as the relative decrease from the control value, in per cent. What is called half-life is how long it takes for the measured level to halve.

The record behind these values is PMC4605435 (Journal of medicinal chemistry, 2015).
